Results reported in PMC6271887, “Antiparasitic Activity of Natural and Semi-Synthetic Tirucallane Triterpenoids from Schinus terebinthifolius (Anacardiaceae): Structure/Activity Relationships” (Molecules, 2014).
≈ marks a conversion by molar mass, not a printed value. Like-named read-outs stand apart in the source and are kept apart here.

Legend:
[1] = tested on: T. cruzi trypomastigotes (Y strain); assay: Activity against Trypanosoma cruzi trypomastigotes (MTT); format: cell-based; conditions: for SI TRY: selectivity index trypomastigotes: CC50 mammalian cells/IC50 trypomastigotes; for IC50: Trypanosoma cruzi, 37 °C, 100 to 0.78 μg/mL, NA: not active, read-out: IC50 CI95% T. cruzi Trypomastigotes; for T. cruzi (Trypomastigotes) Experimental: class, without activity at 100 µg/mL = inactive
Protocol: (§1) Isolated promastigotes of L. (L.) infantum (MHOM/BR/1972/LD) were maintained in M-199 medium supplemented with 10% fetal bovine serum (FBS) and 0.25% hemin at 24 °C. L. infantum was maintained in golden hamsters up to 60–70 days post-infection. Amastigotes were harvested from spleens of infected hamsters by differential centrifugation. T. cruzi trypomastigotes (Y strain) were maintained in LLC-MK2 (ATCC CCL 7) cells using RPMI-1640 medium supplemented with 2% FBS at 37 °C 5% CO2-humidified incubator [21].
Compounds 1–3, 1a–c, 2a–d, 3a, and 3b were dissolved in DMSO and diluted in RPMI-1640 medium to determine the 50% inhibitory concentration (IC50) as described above for the antileishmanial assay. Free trypomastigotes obtained from LLC-MK2 cultures were counted in a Neubauer hemocytometer and seeded at 1 × 10^6/well in 96-well microplates. The tested compounds were incubated in a range concentration of 100 to 0.78 μg/mL for 24 h at 37 °C in a 5% CO2 humidified incubator, using benznidazole as standard drug. The viability of the trypomastigotes was verified by the MTT assay as described above.

[2] = tested on: L. infantum intracellular amastigotes; assay: Activity against L. infantum intracellular amastigotes in peritoneal macrophages (Giemsa, microscopy); format: cell-based, Leishmania (L.) infantum; conditions: for SI AMA: selectivity index amastigotes: CC50 mammalian cells/IC50 Leishmania amastigotes; for IC50: Leishmania infantum, Peritoneal macrophage, intracellular, peritoneal macrophages, 120 h, 100 to 0.78 μg/mL, NA: not active, read-out: IC50 CI95% L. infantum Amastigotes; for L. infantum (Amastigotes) Experimental: class, without activity at 100 µg/mL = inactive
Protocol: as §1
Peritoneal macrophages were collected from the peritoneal cavity of female BALB/c mice by washing with RPMI-1640 without phenol red, supplemented with 10% FBS. NCTC (clone 929) cells were maintained in RPMI-1640 (without phenol red and supplemented with 10% FBS) at 37 °C in a humidified atmosphere containing 5% CO2 [31].
Peritoneal macrophages were obtained as described previously and L. infantum amastigotes were obtained from spleens of infected hamsters by differential centrifugation. Peritoneal macrophages were seeded at 1 × 10^5 cells per well in Nunc™ 16-well slide chambers (Aldrich, St. Louis, MO, USA) for 24 h at 37 °C in a 5% CO2-humidified incubator. Amastigotes were added to macrophages at 10:1 ratio (amastigotes:macrophage) and incubated for 24 h. Non-internalized parasites were removed by washing twice with medium and the cells were then incubated with compounds in a range concentration of 100 to 0.78 μg/mL for 120 h at 37 °C in 5% CO2, using miltefosine as standard drug. At the end of the assay, the cells were fixed in methanol, stained with Giemsa and observed under a light microscope to determine the number of infected macrophages out of 400 cells.

NCTC clone 929 cells = assay: Cytotoxicity against mammalian cells (MTT); format: cell-based
Protocol: (§2) Peritoneal macrophages were collected from the peritoneal cavity of female BALB/c mice by washing with RPMI-1640 without phenol red, supplemented with 10% FBS. NCTC (clone 929) cells were maintained in RPMI-1640 (without phenol red and supplemented with 10% FBS) at 37 °C in a humidified atmosphere containing 5% CO2 [31]. The 50% cytotoxic concentration (CC50) was determined in NCTC clone 929 cells. NCTC cells were seeded at 6 × 10^4 cells/well in 96-well microplates at 37 °C in a 5% CO2. The mammalian cells were incubated with tested compounds to the highest concentration of 200 μg/mL for 48 h at 37 °C, using miltefosine as standard drug. The viability of the cells was determined by MTT assay at 570 nm. The selectivity index (SI) was determined considering the following equation: CC50 NCTC cells/IC50 parasites.

[3] = Cytotoxicity against mammalian cells (MTT); format: cell-based; conditions: mouse
Protocol: as §2

[4] = tested on: T. cruzi trypomastigotes (Y strain); set-up: method as in PMID 24340110; conditions: CI95% not given; cited from earlier work
[5] = tested on: L. infantum promastigotes; set-up: method as in PMID 24374794; conditions: CI95% not given; cited from earlier work
[6] = tested on: L. infantum intracellular amastigotes; set-up: method as in PMID 24374794; conditions: CI95% not given; cited from earlier work
[7] = tested on: L. infantum promastigotes; assay: Activity against L. infantum promastigotes (MTT, light microscopy); format: cell-based; conditions: Leishmania infantum; 48 h, 24 °C, 100 to 0.78 μg/mL; NA: not active; read-out: IC50 CI95% L. infantum Promastigotes
Protocol: as §1
To determine the 50% inhibitory concentration (IC50) against L. infantum promastigotes, compounds 1–3, 1a–c, 2a–d, 3a, and 3b were previously dissolved in dimethyl sulphoxide (DMSO) and diluted with M-199 medium in 96-well microplates. Promastigotes were counted in a Neubauer hemocytometer and seeded at 1 × 10^6/well with a final volume of 150 μL. The tested compounds were incubated in a range concentration of 100 to 0.78 μg/mL for 48 h at 24 °C. The viability of promastigotes was verified by motility and morphology using light microscopy and by the colorimetric MTT assay. Briefly, 3-[4,5-dimethylthiazol-2-yl]-2,5-diphenyltetrazolium bromide (MTT, 5 mg/mL) was dissolved in phosphate-buffered saline (PBS), sterilized through 0.22 µm membranes and added, 20 µL/well, for 4 h at 24 °C. […]

[8] = tested on: extracellular forms of the parasite; set-up: method as in PMID 10603400; conditions: cited from earlier work
[9] = NCTC clone 929 cells, NCTC clone 929, 48 h, highest concentration 200 μg/mL, read-out: CC50 CI95% NCTC

Compound | SI TRY: selectivity index trypomastigotes [1] | IC50 ([1]; 24 h) [µg/mL] | SI AMA: selectivity index amastigotes [2] | NCTC Experimental (NCTC clone 929 cells) | CC50 at 48 h ([3]; CC50 CI95% NCTC) [µg/mL] | L. infantum (Amastigotes) Experimental [2] | also measured
C/C(=C\CCC(C)[C@@H]1CC[C@]2(C)C3=CCC4C(C)(C)C(O)CC[C@]4(C)C3CC[C@@]12C)C(=O)O (stereo partly shown) [Compound 2a, 3ξ-Hydroxytirucalla-7,24E-dien-27-oic acid] | 3.2 | 29.6 (≈ 64.8 µM) | 1.0 | I | 95.5 (≈ 209 µM) | – | IC50 [2]: 97.6 µg/mL (≈ 214 µM)
O=C(Cn1ccnc1[N+](=O)[O-])NCc1ccccc1 [benznidazole] | – | – | – | – | – | – | IC50 T. cruzi Trypomastigotes (standard drug) [4]: 115 µg/mL (≈ 441 µM)
CC(=O)OC1CC[C@]2(C)C3CC[C@@]4(C)[C@H](C(C)CCCC(C)C(=O)O)CC[C@]4(C)C3=CCC2C1(C)C (stereo partly shown) [Compound 2c, 3ξ-Acetoxytirucall-7-en-27-oic acid] | 1.2 | 49.2 (≈ 98.2 µM) | – | I | 57.8 (≈ 115 µM) | I | –
CC(=O)OC1CC[C@]2(C)C3CC[C@@]4(C)[C@H](C(C)CC/C=C(\C)C(=O)O)CC[C@]4(C)C3=CCC2C1(C)C (stereo partly shown) [Compound 2b, 3ξ-Acetoxytirucalla-7,24E-dien-27-oic acid] | 1.1 | 58.4 (≈ 117 µM) | – | I | 69.3 (≈ 139 µM) | I | –
COC(=O)/C(C)=C\CCC(C)[C@@H]1CC[C@]2(C)C3=CCC4C(C)(C)[C@H](OC(C)=O)CC[C@]4(C)C3CC[C@@]12C (stereo partly drawn) [Compound 3b, Methyl 3α-acetoxytirucalla-7,24Z-dien-27-oate] | – | – | – | I | > 200 | I | –
CCCCCCCCCCCCCCCCOP(=O)([O-])OCC[N+](C)(C)C [miltefosine, reference compound] | – | – | 7 | – | – | – | IC50 L. infantum Promastigotes (standard drug) [5]: 6.87 µg/mL (≈ 16.9 µM); IC50 L. infantum Amastigotes (standard drug) [6]: 7.25 µg/mL (≈ 17.8 µM); CC50 at 48 h [3, 9]: 49.7 µg/mL (≈ 122 µM)
CC(CCCC(C)[C@@H]1CC[C@]2(C)C3=CCC4C(C)(C)C(=O)CC[C@]4(C)C3CC[C@@]12C)C(=O)O (stereo partly shown) [Compound 1c, 3-Oxotirucall-7-en-27-oic acid] | – | – | – | I | > 200 | I | T. cruzi (Trypomastigotes) Experimental [1]: I
C/C(=C\CCC(C)[C@@H]1CC[C@]2(C)C3=CCC4C(C)(C)C(=O)CC[C@]4(C)C3CC[C@@]12C)C(=O)O (stereo partly shown) [Compound 2, 3-Oxotirucalla-7,24E-dien-27-oic acid] | 6.1 | 15.8 (≈ 34.6 µM) | 1.5 | – | – | – | IC50 [2]: 64.9 µg/mL (≈ 143 µM); CC50 CI95% NCTC (NCTC clone 929 cells; NCTC clone 929, 48 h, highest concentration 200 μg/mL): 96.48 (77.38–120.30) μg/mL; NCTC Experimental (NCTC clone 929 cells; cytotoxicity class): I; CC50 at 48 h [3, 9]: 96 µg/mL (≈ 211 µM)
COC(=O)/C(C)=C\CCC(C)[C@@H]1CC[C@]2(C)C3=CCC4C(C)(C)[C@H](O)CC[C@]4(C)C3CC[C@@]12C (stereo partly drawn) [Compound 3a, Methyl 3α-hydroxytirucalla-7,24Z-dien-27-oate] | – | – | – | I | > 200 | I | –
C/C(=C/CCC(C)[C@@H]1CC[C@]2(C)C3=CCC4C(C)(C)C(O)CC[C@]4(C)C3CC[C@@]12C)C(=O)O (stereo partly shown) [Compound 1a, 3ξ-Hydroxytirucalla-7,24Z-dien-27-oic acid] | 3.4 | 20.2 (≈ 44.2 µM) | – | – | 69.5 (≈ 152 µM) | I | –
C/C(=C/CCC(C)[C@@H]1CC[C@]2(C)C3=CCC4C(C)(C)[C@H](O)CC[C@]4(C)C3CC[C@@]12C)C(=O)O (stereo partly drawn) [Compound 3, 3α-Hydroxytirucalla-7,24Z-dien-27-oic acid] | 4.3 | 16.3 (≈ 35.6 µM) | 2.4 | – | 69 (≈ 151 µM) | – | IC50 [2]: 28.9 µg/mL (≈ 63.4 µM); IC50 [7]: 57.8 µg/mL (≈ 127 µM); CC50 CI95% NCTC (NCTC clone 929 cells; mouse, 48 h): 69.50 (64.01–75.45) μg/mL
CC(CCCC(C)[C@@H]1CC[C@]2(C)C3=CCC4C(C)(C)C(O)CC[C@]4(C)C3CC[C@@]12C)C(=O)O (stereo partly shown) [Compound 1b, 3ξ-Hydroxytirucall-7-en-27-oic acid] | 4.3 | 17.6 (≈ 38.5 µM) | – | – | 76.4 (≈ 167 µM) | I | –
C/C(=C/CCC(C)[C@@H]1CC[C@]2(C)C3=CCC4C(C)(C)C(=O)CC[C@]4(C)C3CC[C@@]12C)C(=O)O (stereo partly shown) [Compound 1, 3-Oxotirucalla-7,24Z-dien-27-oic acid] | – | – | >3 | – | – | – | IC50 against T. cruzi trypomastigotes ([1]; 24 h): lack of activity; T. cruzi (Trypomastigotes) Experimental [1]: I; IC50 [2]: 66.5 µg/mL (≈ 146 µM); NCTC Experimental (NCTC clone 929 cells; cytotoxicity class): I; CC50 at 48 h [3, 9]: > 200 µg/mL
CNC[C@H](O)[C@@H](O)[C@H](O)[C@H](O)CO.[O]=[Sb](=[O])[OH] [glucantime] | – | – | – | – | – | – | effectiveness against the extracellular forms of the parasite [8]: no effectiveness
COC(=O)/C(C)=C/CCC(C)[C@@H]1CC[C@]2(C)C3=CCC4C(C)(C)C(=O)CC[C@]4(C)C3CC[C@@]12C (stereo partly shown) [Compound 2d, Methyl 3-oxotirucalla-7,24E-dien-27-oate] | – | – | – | – | – | I | T. cruzi (Trypomastigotes) Experimental [1]: I; NCTC Experimental (NCTC clone 929 cells; cytotoxicity class): I; CC50 at 48 h [3, 9]: > 200 µg/mL
